Legend:
[1] = target: T1, DinF-BH (Halalkalibacterium halodurans (Bacillus halodurans), UniProt Q9KAX3); assay: biochemical
T1 sequence (Q9KAX3 1-464): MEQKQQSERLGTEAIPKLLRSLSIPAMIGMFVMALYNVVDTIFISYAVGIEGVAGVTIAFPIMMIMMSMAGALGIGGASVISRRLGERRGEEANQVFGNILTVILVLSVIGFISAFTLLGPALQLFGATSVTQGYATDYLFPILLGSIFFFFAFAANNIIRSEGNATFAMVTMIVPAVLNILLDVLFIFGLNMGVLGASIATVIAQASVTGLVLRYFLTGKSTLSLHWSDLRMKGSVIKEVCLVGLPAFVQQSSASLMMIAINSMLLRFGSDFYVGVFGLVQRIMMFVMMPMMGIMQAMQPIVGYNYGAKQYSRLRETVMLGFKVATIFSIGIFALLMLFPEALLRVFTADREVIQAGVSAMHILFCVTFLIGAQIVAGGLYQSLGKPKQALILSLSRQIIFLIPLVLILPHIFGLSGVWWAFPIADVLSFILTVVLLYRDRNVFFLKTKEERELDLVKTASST
Description: (§1) [^3H]-R6G (2.7 Ci mmol^−1, 1.0 mCi ml^−1) was custom-synthesized by Moravek Biochemicals (Brea, California, USA). [^3H]-R6G binding assay was performed by using immobilized protein on Ni-NTA beads[31][42] as follows. Briefly, freshly purified protein (DinF-BH or NorM-NG) was mixed gently with pre-equilibrated Ni-NTA beads at 1 mg ml^−1 in buffers containing 20 mM Tris-HCl pH 8, 50 mM NaCl, 20% (v/v) glycerol, 0.02% (w/v) DDM, 1 mM TCEP (binding buffer) for >1 h at 4 °C. The mixture was centrifuged and the unbound material (supernatant) was discarded.
(§2) The beads were thoroughly washed, resuspended and aliquoted in the binding buffer. […] The samples were then transferred into micro-columns and centrifuged; the unbound material (flow-through) was discarded. The protein was eluted by using the binding buffer supplemented with 500 mM Imidazole. The radioactivity of the eluate was measured by liquid scintillation. […] All the experiments were performed in duplicate and repeated three times.

[2] = target: NorM-NG (Neisseria gonorrhoeae, UniProt Q5F9J8); assay: biochemical; assay type: binding
Sequence of NorM-NG (Q5F9J8 entry or part of it): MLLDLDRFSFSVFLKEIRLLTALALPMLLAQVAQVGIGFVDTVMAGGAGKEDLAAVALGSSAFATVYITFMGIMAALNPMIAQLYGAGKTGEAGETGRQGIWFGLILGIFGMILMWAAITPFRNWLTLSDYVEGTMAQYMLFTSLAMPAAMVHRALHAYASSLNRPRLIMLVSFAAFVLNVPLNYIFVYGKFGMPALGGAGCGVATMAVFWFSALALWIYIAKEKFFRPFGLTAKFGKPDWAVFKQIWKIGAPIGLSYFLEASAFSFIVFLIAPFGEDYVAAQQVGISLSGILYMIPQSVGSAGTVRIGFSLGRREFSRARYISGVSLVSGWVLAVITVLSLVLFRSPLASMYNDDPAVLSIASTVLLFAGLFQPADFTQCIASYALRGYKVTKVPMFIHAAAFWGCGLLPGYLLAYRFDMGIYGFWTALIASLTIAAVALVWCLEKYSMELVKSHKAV
Description: as §1, §2

SMILES	Ki [1] [µM]	Ki [2] [µM]	Kd [1] [µM]	Kd [2] [µM]
CC[n+]1c(-c2ccccc2)c2cc(N)ccc2c2ccc(N)cc21 [ethidium]	< 25	< 25	–	–
CC/N=c1\cc2oc3cc(NCC)c(C)cc3c(-c3ccccc3C(=O)OCC)c-2cc1C [R6G, rhodamine 6G]	< 10	< 10	~5	~5

From publication PMC4866600, “Structural basis for the blockade of MATE multidrug efflux pumps” (Nature Communications, 2015)
